# From PMC6915728 (Nature Communications, 2019)
# Read-outs that look alike come from different tables or passages of the source.
# Key:
# [1] = system: E. coli BW25113 overexpression strains (ASKA plasmids); assay: Minimum inhibitory concentration (MIC), serial broth dilution, single-gene overexpression strains vs empty-vector control; type: cell-based, Escherichia coli; details: broth dilution, MS medium, 100 µM IPTG, 30 °C, 20-24 h, OD600, 3 replicates
# Experimental: Minimum inhibitory concentrations (MIC) were determined with a standard serial broth dilution technique with a minor modification. Specifically, instead of a two-fold dilution series, smaller AMP concentration steps were used (typically 1.2-fold) for two reasons. […] Second, gene overexpressions caused typically only small changes in the MICs of AMPs and therefore higher resolution was required. The protocol was as follows. From a stock solution of an AMP, 12-steps serial dilution was prepared in fresh MS medium in 96-well microtiter plates. Each AMP was represented in 11 different concentrations (3 wells per AMP concentration per strain). Three wells contained only medium to check the growth in the absence of AMP. After overnight growth in MS medium supplemented with chloramphenicol, bacterial strains were diluted 20-fold into fresh MS medium and grown until the cell density reached OD600 ~1. Cells were induced by 100 µM of IPTG and incubated for 1 h at 30 °C with continuous shaking at 300 rpm. Following incubation, approximately half-million cells were inoculated into the wells of the 96-well microtiter plate with a 96‐pin replicator. We used three independent replicates for each strain and the corresponding control. Two rows in the 96-well plate contained only MS medium in order to obtain the background OD value of the medium. Plates were incubated at 30 °C with continuous shaking at 300 rpm. After 20–24 h of incubation, OD600 values were measured in a microplate reader (Biotek Synergy 2).
# [2] = system: AMP-evolved E. coli lines; details: ref Spohn et al 2019, cited from earlier work
# Excerpt: Supplement 41467_2019_13618_MOESM13_ESM.xlsx, sheet "Figure 6 and S15" | column: A comprehensive dataset of antimicrobial susceptibility of AMP-adapted lines to antimicrobial peptides (AMPs).
# bacterial membrane = details: literature mining; ref superscript numbers in the cell, listed in Supplementary Data 7 sheet References; cited from earlier work
# Excerpt: Supplement 41467_2019_13618_MOESM10_ESM.xlsx, sheet "AMP details" | column: Pore formation
# [3] = system: E. coli K12 BW25113 carrying the pooled ASKA overexpression plasmid library (~4400 ORFs); assay: Chemical-genetic profiling: pooled competitive growth of the ASKA gene-overexpression library with and without AMP, deep sequencing readout; type: cell-based, Escherichia coli; details: overexpressed gene aaaD; presence vs absence of AMP; average of biological replicates
# Excerpt: We generated chemical-genetic interaction profiles for a diverse set of AMPs (Table 1) by screening them against a comprehensive library of gene overexpressions in E. coli[21]. Increasing gene dosage is a widely applied approach to reveal the targets of small-molecule antibiotics[22],[23]. It also informs on the ‘latent resistome’, that is, the collection of genes where a change from native expression level enhances resistance to a particular drug[24]. We applied a sensitive competition assay by monitoring growth of a pooled plasmid library, overexpressing all the E. coli ORFs (Fig. 1a), as we reported earlier. Specifically, E. coli cells carrying the pooled plasmid collection were grown in the presence or absence of one of the 15 AMPs tested, at a sub-inhibitory concentration that increased the doubling time of the whole population by 2-fold. Following 12 generations of growth, the plasmid pool was isolated from each selection and the relative abundance of each plasmid was determined by a deep sequencing readout (see Methods).
# We carried out chemical-genetic profiling to determine the impact of the overexpression of each E. coli ORF on bacterial susceptibility to each of the 15 different AMPs. To this end, we used the complete set of E. coli K-12 Open Reading Frame Archive (ASKA) plasmid library (GFP minus) where each E. coli ORF is cloned into a high copy number expression plasmid (pCA24N-ORFGFP(-)). Prior to screening, the ASKA library was grown in the original host strain E. coli K-12 AG1 in 96-well plates (growth conditions: 37 °C, 280 rpm, LB medium). An equal aliquot of each member of the ASKA library (each well of the 96-well plates) was pooled together and the plasmid DNA (pCA24N-ORF-GFP(-)) was isolated and transformed into E. coli K12 BW25113 strain[51]. To obtain a negative control strain not having any overexpressed gene, the plasmid without a cloned ORF (pCA24N-noORF) was also transformed into the same E. coli strain. Then, on the pooled collection, we applied a previously reported competitive growth assay. Specifically, the pooled overexpression library and the control strain were grown in parallel in MS medium supplemented with 20 µg per ml chloramphenicol and the overexpression was induced by 100 µM isopropyl-ß-D-thiogalactopyranoside (IPTG). After 1 h induction, ~5 × 10^5 bacterial cells from the library were inoculated into each well of a 96-well microtiter plate containing a concentration gradient of an AMP in the MS medium supplemented with 20 µg per ml chloramphenicol and 100 µM IPTG. At the same time, both the library and the control strain with the empty plasmid were grown in the absence of any AMPs. We took special care to grow both of these samples in the exact same conditions as the samples in the presence of AMPs. Bacterial growth was monitored in a microplate reader (Biotek Synergy 2) for 24 h. At the end of the exponential growth phase, we selected those wells in which the doubling time of the cell population was increased by 2-fold. Then, from these wells, cells were split into four equal proportion and each was transferred into 20 mL of MS medium supplemented with the corresponding AMP in four different concentrations in the range that slowed down growth by two-fold in the microtitre plate. […] The rationale for this 2-step process was to maintain competition in exponential phase for 12 generations of growth, efficiently control the growth rate in a reproducible manner and obtain the plasmid pool with standard DNA isolation protocol (innuPREP plasmid mini Kit, Analytik Jena AG) in a yield that is enough for the downstream analysis. The cultures were vigorously shaken along the entire protocol to make sure that the cultures are completely homogeneous and therefore biasing interactions between clones (such as trans-resistance) was minimized. […]
# [4] = system: E. coli gene overexpression; details: gene prfA overexpressed; ref 11 (Matsumoto et al. 2017); cited from earlier work
# Excerpt: Supplement 41467_2019_13618_MOESM1_ESM.docx, table 1: Supplementary Table 1. Collected examples of E. coli gene overexpression from the literature as a confirmation of our chemical-genetic screen results. | column: Overexpression phenotype
# [5] = overexpression strain mlaD, MIC of the overexpression strain / MIC of the control strain (wild-type carrying the empty plasmid)
sequence,measurement,setting,value
"GWGSFFKKAAHVGKHVGKAALTHYL [PLEU, Pleurocidin, antimicrobial peptide from Pleuronectes americanus; cluster C2]",Relative MIC,[1]; [5],1
same,Relative MIC,"[1]; overexpression strain nikB, MIC of overexpression strain / MIC of empty-plasmid control",0.8
same,Relative change in MIC (MIC of the AMP-adpated line / MIC of the ancestral strain),[2]; AMP-adapted line BAC5_3,1
same,Relative change in MIC (MIC of the AMP-adpated line / MIC of the ancestral strain),[2]; AMP-adapted line BAC5_5,0.8
same,Relative change in MIC (MIC of the AMP-adpated line / MIC of the ancestral strain),[2]; AMP-adapted line BAC5_7,1
same,Relative change in MIC (MIC of the AMP-adpated line / MIC of the ancestral strain),[2]; AMP-adapted line BAC5_10,1
same,Relative change in MIC (MIC of the AMP-adpated line / MIC of the ancestral strain),[2]; AMP-adapted line CAP18_2,2.1
same,Relative change in MIC (MIC of the AMP-adpated line / MIC of the ancestral strain),[2]; AMP-adapted line CAP18_5,2.5
same,Relative change in MIC (MIC of the AMP-adpated line / MIC of the ancestral strain),[2]; AMP-adapted line CAP18_6,2.3
same,Relative change in MIC (MIC of the AMP-adpated line / MIC of the ancestral strain),[2]; AMP-adapted line CAP18_8,1.7
same,Relative change in MIC (MIC of the AMP-adpated line / MIC of the ancestral strain),[2]; AMP-adapted line CAP18_10,4.3
same,Relative change in MIC (MIC of the AMP-adpated line / MIC of the ancestral strain),[2]; AMP-adapted line HBD3_3,1.3
same,Relative change in MIC (MIC of the AMP-adpated line / MIC of the ancestral strain),[2]; AMP-adapted line HBD3_6,1.7
same,Relative change in MIC (MIC of the AMP-adpated line / MIC of the ancestral strain),[2]; AMP-adapted line HBD3_8,1.7
same,Relative change in MIC (MIC of the AMP-adpated line / MIC of the ancestral strain),[2]; AMP-adapted line HBD3_10,1.3
same,Relative change in MIC (MIC of the AMP-adpated line / MIC of the ancestral strain),[2]; AMP-adapted line LL37_1,1.4
same,Relative change in MIC (MIC of the AMP-adpated line / MIC of the ancestral strain),[2]; AMP-adapted line LL37_3,1.2
same,Relative change in MIC (MIC of the AMP-adpated line / MIC of the ancestral strain),[2]; AMP-adapted line LL37_6,1.4
same,Relative change in MIC (MIC of the AMP-adpated line / MIC of the ancestral strain),[2]; AMP-adapted line LL37_7,64
same,Relative change in MIC (MIC of the AMP-adpated line / MIC of the ancestral strain),[2]; AMP-adapted line LL37_10,1.6
same,Relative change in MIC (MIC of the AMP-adpated line / MIC of the ancestral strain),[2]; AMP-adapted line PEX_1,2.3
same,Relative change in MIC (MIC of the AMP-adpated line / MIC of the ancestral strain),[2]; AMP-adapted line PEX_4,2.3
same,Relative change in MIC (MIC of the AMP-adpated line / MIC of the ancestral strain),[2]; AMP-adapted line PEX_5,1.4
same,Relative change in MIC (MIC of the AMP-adpated line / MIC of the ancestral strain),[2]; AMP-adapted line PEX_6,2.8
same,Relative change in MIC (MIC of the AMP-adpated line / MIC of the ancestral strain),[2]; AMP-adapted line PEX_7,1.7
same,Relative change in MIC (MIC of the AMP-adpated line / MIC of the ancestral strain),[2]; AMP-adapted line PR39_1,1.4
same,Relative change in MIC (MIC of the AMP-adpated line / MIC of the ancestral strain),[2]; AMP-adapted line PR39_2,1.1
same,Relative change in MIC (MIC of the AMP-adpated line / MIC of the ancestral strain),[2]; AMP-adapted line PR39_5,1
same,Relative change in MIC (MIC of the AMP-adpated line / MIC of the ancestral strain),[2]; AMP-adapted line PR39_7,0.9
same,Relative change in MIC (MIC of the AMP-adpated line / MIC of the ancestral strain),[2]; AMP-adapted line PR39_10,0.9
same,Relative change in MIC (MIC of the AMP-adpated line / MIC of the ancestral strain),[2]; AMP-adapted line PROA_2,1.6
same,Relative change in MIC (MIC of the AMP-adpated line / MIC of the ancestral strain),[2]; AMP-adapted line PROA_3,0.9
same,Relative change in MIC (MIC of the AMP-adpated line / MIC of the ancestral strain),[2]; AMP-adapted line PROA_7,1.1
same,Relative change in MIC (MIC of the AMP-adpated line / MIC of the ancestral strain),[2]; AMP-adapted line PROA_8,1.2
same,Relative change in MIC (MIC of the AMP-adpated line / MIC of the ancestral strain),[2]; AMP-adapted line PROA_9,0.9
same,Relative change in MIC (MIC of the AMP-adpated line / MIC of the ancestral strain),[2]; AMP-adapted line PXB_2,0.9
same,Relative change in MIC (MIC of the AMP-adpated line / MIC of the ancestral strain),[2]; AMP-adapted line PXB_5,1.6
same,Relative change in MIC (MIC of the AMP-adpated line / MIC of the ancestral strain),[2]; AMP-adapted line PXB_6,4.8
same,Relative change in MIC (MIC of the AMP-adpated line / MIC of the ancestral strain),[2]; AMP-adapted line PXB_8,2.1
same,Relative change in MIC (MIC of the AMP-adpated line / MIC of the ancestral strain),[2]; AMP-adapted line PXB_10,6.3
same,Pore formation (whether AMP makes pores in the bacterial membrane),bacterial membrane,Yes18
"GNNRPVYIPQPRPPHPRL [AP, Apidaecin IB, antimicrobial peptide, source Apis mellifera L; cluster C3]",Chemical-genetic score,[3],-0.578 log2 fold change
same,Relative MIC,"[1]; overexpression strain cvpA, MIC of overexpression strain / MIC of empty-plasmid control",0.64
same,Relative MIC,"[1]; overexpression strain gadW, MIC of overexpression strain / MIC of empty-plasmid control",2.5
same,Relative MIC,"[1]; overexpression strain lptB, MIC of overexpression strain / MIC of empty-plasmid control",0.64
same,Relative MIC,[1]; [5],0.6
same,"Overexpression phenotype, Literature",[4],Resistance^11
